In patent US20240315991A1, “USES OF HNF4 ALPHA AGONISTS” (Sanford Burnham Prebys Medical Discovery Institute, priority 2023, published 2024):

Key:
[1] = target: T1, HNF4α (Mus musculus, UniProt P49698); experiment: HNF4α immunofluorescence of liver sections; assay type: in vivo; settings: C57BL/6 mice, HFD containing 4000 ppm NCT (approximately 400 mg/kg/d), oral, 10 weeks, vs HFD
T1 construct: from tissue; host or cells: liver of C57BL/6J mice
Experimental: NCT oral administration. Four-week-old male C57BL/6J (JAX cat #000664) mice were purchased from Jackson laboratory and were maintained in a 12 h light/dark cycle throughout the experiment. Prior to the experiments, mice were acclimated for 2 weeks. Six-week-old mice with similar body weights were randomized to a normal diet (NC), a high fat diet (HFD) (Research Diets, cat #D12492 60 kcal % fat) or HFD containing 4000 ppm NCT (HFD+NCT) (Research Diets, 60 kcal % fat+4000 ppm NCT), which was calculated to provide approximately 400 mg/kg/d NCT. HFD chow containing NCT was made with gray dye to distinguish it from regular HFD chow that had green dye. Mice for each treatment group were placed in separate cages. […] Body weight gain and food intake were measured every week for 10 weeks. […]
Immunofluorescence. […] Slides were mounted using fluorescence mounting medium and images were obtained at ×40 magnification using an Olympus IX71 fluorescence microscope. Fluorescence intensity of HNF4α-stained nuclei and VDAC stained mitochondria was calculated using MetaMorph TL software (version 7.6.5.0, Olympus). Fold change was calculated by normalizing to values from mice fed NC.
C57BL/6 mice were fed normal chow (NC), a high fat diet (HFD), or a high fat diet containing 4000 ppm NCT (HFD+NCT) for 10 weeks. […] The fold change was calculated vs. NC (NC, N=3, HFD and HFD+NCT, N=12). […]

[2] = test system: SDHA mRNA; experiment: RT-PCR of mouse liver, SDHA; assay type: in vivo; settings: HFD+NCT vs HFD, FIGS. 3G and 3H
Experimental: (§1) NCT oral administration. Four-week-old male C57BL/6J (JAX cat #000664) mice were purchased from Jackson laboratory and were maintained in a 12 h light/dark cycle throughout the experiment. Prior to the experiments, mice were acclimated for 2 weeks. Six-week-old mice with similar body weights were randomized to a normal diet (NC), a high fat diet (HFD) (Research Diets, cat #D12492 60 kcal % fat) or HFD containing 4000 ppm NCT (HFD+NCT) (Research Diets, 60 kcal % fat+4000 ppm NCT), which was calculated to provide approximately 400 mg/kg/d NCT. HFD chow containing NCT was made with gray dye to distinguish it from regular HFD chow that had green dye. Mice for each treatment group were placed in separate cages. Equal amounts of fresh chow were provided every week to all mice. Body weight gain and food intake were measured every week for 10 weeks. After 10 weeks of chow treatment, mice were sacrificed for analysis. […]
(§2) RT-PCR. […] Quantitative real time PCR (RT-PCR) analysis was performed using SYBR® Select Master Mix (Applied Biosystems) and an ABI 7900HT thermal cycler (Applied Biosystems, Thermo Fisher Scientific). Ct values were normalized to 18s rRNA and are expressed as fold change over samples from mice fed NC or cultured human hepatocytes without NCT.

[3] = test system: DNA encoding the mitochondrial genes ND1; experiment: Mitochondrial DNA analysis of liver, ND1; assay type: in vivo; settings: mouse liver, HFD+NCT vs HFD, FIG. 3K
Experimental: (§3) NCT oral administration. Four-week-old male C57BL/6J (JAX cat #000664) mice were purchased from Jackson laboratory and were maintained in a 12 h light/dark cycle throughout the experiment. Prior to the experiments, mice were acclimated for 2 weeks. Six-week-old mice with similar body weights were randomized to a normal diet (NC), a high fat diet (HFD) (Research Diets, cat #D12492 60 kcal % fat) or HFD containing 4000 ppm NCT (HFD+NCT) (Research Diets, 60 kcal % fat+4000 ppm NCT), which was calculated to provide approximately 400 mg/kg/d NCT. HFD chow containing NCT was made with gray dye to distinguish it from regular HFD chow that had green dye. Mice for each treatment group were placed in separate cages. Equal amounts of fresh chow were provided every week to all mice. Body weight gain and food intake were measured every week for 10 weeks. After 10 weeks of chow treatment, mice were sacrificed for analysis. All animal experiments were approved by the Institutional Animal Care and Use Committee (IACUC) of the Sanford Burnham Prebys Medical Discovery Institute in accordance with national regulations. Sample size was chosen based on the prior study of NCT delivered by IP injection.
(§4) Quantification of mtDNA was performed. […]

[4] = test system: DNA encoding the mitochondrial genes 16s rRNA; experiment: Mitochondrial DNA analysis of liver, 16s rRNA; assay type: in vivo; settings: mouse liver, HFD+NCT vs HFD, FIG. 3L
Experimental: as §3, §4

[5] = test system: PPARγ mRNA; experiment: RT-PCR of mouse liver, PPARγ; assay type: in vivo; settings: HFD+NCT vs HFD, to the level of mice on normal chow, FIG. 3N
Experimental: as §1, §2

[6] = test system: Sirt1 mRNA; experiment: RT-PCR of mouse liver, Sirtuin1; assay type: in vivo; settings: HFD+NCT vs HFD, FIG. 4D
Experimental: as §1, §2

[7] = test system: IL-6 mRNA; experiment: RT-PCR of mouse liver, IL-6; assay type: in vivo; settings: HFD+NCT vs HFD, FIG. 5A
Experimental: as §1, §2

[8] = test system: PPARGC1A mRNA; experiment: RT-PCR of primary human hepatocytes, PPARGC1A; assay type: cell-based; settings: HEP-fat media, NCT 5, 15, and 40 μM, FIG. 4F
Experimental: Primary human hepatocytes. Experiments with primary human hepatocytes were performed by CN-Bio (Cambridge, UK). Briefly, primary human hepatocytes (PHHs), human Kupffer cells (HKs) and human stellate cells (HSCs) were seeded onto CN-Bio's PhysioMimix LC12 MPS culture plates at 6×10^5 cells for PHHs and 6×10^4 cells for HKs and HSCs in 1.6 ml of CN-Bio's HEP-lean media with 5% FCS. Throughout the experiment the cells were maintained at a flow rate of 1 μl/s. After 24 hours (Day 1) of seeding, the media was changed to HEP-lean media and the cells were incubated until day 4 to allow the cells to form microtissues. At day 4 post seeding, media was changed to HEP-fat media and treated with DMSO or NCT (5, 15, and 40 μM). Media was replaced on days 6 and 8. Cells were harvested on day 10 for RNA extraction and culture media was collected for ELISA analysis.
as §2

[9] = cited from earlier work
[10] = test system: mice maintained on a 60% fat calorie diet; settings: intraperitoneal injection for 2 weeks; cited from earlier work

T1 sequence (P49698 whole entry): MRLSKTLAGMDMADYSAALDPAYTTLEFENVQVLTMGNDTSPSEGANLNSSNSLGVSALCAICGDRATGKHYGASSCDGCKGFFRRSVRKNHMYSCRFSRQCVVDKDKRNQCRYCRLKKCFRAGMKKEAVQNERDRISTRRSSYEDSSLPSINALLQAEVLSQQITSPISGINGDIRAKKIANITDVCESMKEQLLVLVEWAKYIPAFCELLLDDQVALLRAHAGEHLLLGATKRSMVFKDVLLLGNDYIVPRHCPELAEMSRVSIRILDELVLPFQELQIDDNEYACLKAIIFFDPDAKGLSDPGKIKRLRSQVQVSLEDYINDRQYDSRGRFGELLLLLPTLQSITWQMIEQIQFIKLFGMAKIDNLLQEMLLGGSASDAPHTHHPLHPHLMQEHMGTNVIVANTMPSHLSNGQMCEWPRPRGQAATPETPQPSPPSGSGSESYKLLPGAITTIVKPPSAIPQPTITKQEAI

O=C(/C=C/c1ccc(O)c(O)c1)NCCc1ccc(O)cc1 [NCT, N-trans caffeoyltyramine]
HNF4α expression in liver (HNF4α fluorescence intensity) [1]: reversed | SDHA mRNA in mouse liver [2]: increase | level of DNA encoding the mitochondrial genes ND1 [3]: increase | level of DNA encoding the mitochondrial genes 16s rRNA [4]: increase | PPARγ expression in liver [5]: reduce | Sirt1 mRNA in mouse liver [6]: reverse the depression | IL-6 level in livers of mice on HFD [7]: decreased | IL-6 level in livers of mice on HFD ([7]; listed as Compound A): decrease | PPARGC1A(PGC1a) mRNA in primary human hepatocytes [8]: increase | oral bioavailability [9]: poor | body weight loss [10]: no body weight loss | fat stored in liver [10]: reduce
